Laboratory results published in US10407381B2 (THE BOARD OF TRUSTEES OF THE UNIVERSITY OF ILLINOIS, priority 2015, dated 2019).
Like-named read-outs stand apart in the source and are kept apart here.

Columns and labels:
[1] = target: T1, human 5-HT2C-INI (Homo sapiens, UniProt P28335); assay: Calcium flux (FLIPR) assay, human 5-HT2C-INI stably expressed in HEK-293 (Flp-In-293) cells; details: human 5-HT2C-INI in HEK-293 cells, FLIPR; for EC50: NA = no activity at 10 μM; for Emax, % 5-HT 5-HT2C: normalized to 5-HT
T1 sequence (P28335 33-458): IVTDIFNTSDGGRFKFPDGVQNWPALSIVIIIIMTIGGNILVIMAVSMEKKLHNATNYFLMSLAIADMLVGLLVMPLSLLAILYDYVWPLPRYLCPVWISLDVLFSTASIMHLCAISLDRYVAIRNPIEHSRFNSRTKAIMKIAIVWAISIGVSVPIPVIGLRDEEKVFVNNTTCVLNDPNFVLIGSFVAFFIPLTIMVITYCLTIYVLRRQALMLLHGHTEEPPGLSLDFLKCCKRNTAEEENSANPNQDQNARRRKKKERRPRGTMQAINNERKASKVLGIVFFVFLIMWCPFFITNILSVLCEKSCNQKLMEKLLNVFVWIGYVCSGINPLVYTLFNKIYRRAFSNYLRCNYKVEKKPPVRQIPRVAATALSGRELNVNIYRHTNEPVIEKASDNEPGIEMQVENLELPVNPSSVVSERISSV

[2] = target: 5-HT2B (Homo sapiens, UniProt P41595); assay: Calcium flux (FLIPR) assay, human 5-HT2B stably expressed in HEK-293 (Flp-In-293) cells; details: human 5-HT2B in HEK-293 cells; for EC50: EC50, nM 5-HT2B, NA = no activity at 10 μM; for Emax, % 5-HT 5-HT2B: normalized to 5-HT
Chain of 5-HT2B (P41595 whole entry): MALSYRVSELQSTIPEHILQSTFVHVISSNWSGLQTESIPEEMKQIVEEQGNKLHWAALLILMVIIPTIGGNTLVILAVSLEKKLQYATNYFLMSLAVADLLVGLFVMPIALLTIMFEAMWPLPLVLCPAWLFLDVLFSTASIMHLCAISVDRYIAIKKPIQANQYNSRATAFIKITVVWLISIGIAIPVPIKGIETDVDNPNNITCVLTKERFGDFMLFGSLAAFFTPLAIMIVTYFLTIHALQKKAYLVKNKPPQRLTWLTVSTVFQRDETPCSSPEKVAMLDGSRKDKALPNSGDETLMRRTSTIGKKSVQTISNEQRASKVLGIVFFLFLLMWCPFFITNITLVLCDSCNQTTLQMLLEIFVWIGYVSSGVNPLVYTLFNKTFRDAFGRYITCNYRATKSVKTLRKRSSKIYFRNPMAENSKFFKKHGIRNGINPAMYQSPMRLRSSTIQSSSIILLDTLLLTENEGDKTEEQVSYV

NCC1CC1c1cc(Cl)c(F)cc1OCCF (single isomer, unassigned; (+)) [(+)-Example 4, (+)-(2-(5-Chloro-4-fluoro-2-(2-fluoroethoxy)phenyl)cyclopropyl)methanamine]
EC50 ([1]; EC50, nM 5-HT2C): 24 nM | Emax, % 5-HT 5-HT2C [1]: (87%) % 5-HT | EC50 [2]: 506 nM | Emax, % 5-HT 5-HT2B [2]: (39%) % 5-HT

C=CCOc1cc(F)c(Cl)cc1C1CC1CN (single isomer, unassigned; (+)) [(+)-Example 5, (+)-(2-(2-(Allyloxy)-5-chloro-4-fluorophenyl)cyclopropyl)methanamine]
EC50 ([1]; EC50, nM 5-HT2C): 42 nM | Emax, % 5-HT 5-HT2C [1]: (87%) % 5-HT | EC50 [2]: 1000 nM | Emax, % 5-HT 5-HT2B [2]: (44%) % 5-HT

CCCOc1ccc(Cl)cc1C1CC1CN (single isomer, unassigned; (+)) [(+)-Example 12, (+)-(2-(5-Chloro-2-propoxyphenyl)cyclopropyl)methanamine]
EC50 ([1]; EC50, nM 5-HT2C): 103 nM | Emax, % 5-HT 5-HT2C [1]: (72%) % 5-HT | EC50 [2]: 3440 nM | Emax, % 5-HT 5-HT2B [2]: (25%) % 5-HT

COCCOc1ccc(Cl)cc1C1CC1CN (single isomer, unassigned; (+)) [(+)-Example 17, (+)-(2-(5-Chloro-2-(2-methoxyethoxy)phenyl)cyclopropyl)methanamine]
EC50 ([1]; EC50, nM 5-HT2C): 183 nM | Emax, % 5-HT 5-HT2C [1]: (8%) % 5-HT

CSCCOc1ccc(Cl)cc1C1CC1CN (single isomer, unassigned; (+)) [(+)-Example 18, (+)-(2-(5-Chloro-2-(2-(methylthio)ethoxy)phenyl)cyclopropyl)methanamine]
EC50 ([1]; EC50, nM 5-HT2C): 244 nM | Emax, % 5-HT 5-HT2C [1]: (24%) % 5-HT

NCC1CC1c1cc(Cl)ccc1OCCCF (single isomer, unassigned; (+)) [(+)-Example 20, (+)-(2-(5-Chloro-2-(3-fluoropropoxy)phenyl)cyclopropyl)methanamine]
EC50 ([1]; EC50, nM 5-HT2C): 206 nM | Emax, % 5-HT 5-HT2C [1]: (60%) % 5-HT | EC50 [2]: 4910 nM | Emax, % 5-HT 5-HT2B [2]: (22%) % 5-HT

C=CCOc1ccc(Cl)cc1C1CC1CN (single isomer, unassigned; (+)) [(+)-Example 23, (+)-(2-(2-(Allyloxy)-5-chlorophenyl)cyclopropyl)methanamine]
EC50 ([1]; EC50, nM 5-HT2C): 60 nM | Emax, % 5-HT 5-HT2C [1]: (80%) % 5-HT | EC50 [2]: 2210 nM | Emax, % 5-HT 5-HT2B [2]: (32%) % 5-HT

NCC1CC1c1c(OCCF)ccc(Cl)c1F (single isomer, unassigned; (+)) [(+)-Example 31, (+)-(2-(3-Chloro-2-fluoro-6-(2-fluoroethoxy)phenyl)cyclopropyl)methanamine]
EC50 ([1]; EC50, nM 5-HT2C): 71 nM | Emax, % 5-HT 5-HT2C [1]: (86%) % 5-HT | Emax, % 5-HT 5-HT2B [2]: (15%) % 5-HT

C=CCOc1cc(Cl)c(Cl)cc1C1CC1CN (single isomer, unassigned; (+)) [(+)-Example 35, (+)-(2-(2-(Allyloxy)-4,5-dichlorophenyl)cyclopropyl)methanamine]
EC50 ([1]; EC50, nM 5-HT2C): 61 nM | Emax, % 5-HT 5-HT2C [1]: (88%) % 5-HT

C=CCOc1ccc(Cl)c(Cl)c1C1CC1CN (single isomer, unassigned; (+)) [(+)-Example 39]
Emax, % 5-HT 5-HT2C [1]: (70%) % 5-HT | EC50 ([1]; read-out: EC50, nM 5-HT2C): 165 nM

NCC1CC1c1cc(F)c(F)cc1OCCF (single isomer, unassigned; (+)) [(+)-Example 42, (+)-(2-(4,5-Difluoro-2-(2-fluoroethoxy)phenyl)cyclopropyl)methanamine]
EC50 ([1]; EC50, nM 5-HT2C): 7.3 nM | Emax, % 5-HT 5-HT2C [1]: (95%) % 5-HT

NCC1CC1c1c(OCCF)ccc(F)c1F (single isomer, unassigned; (+)) [(+)-Example 47, (+)-(2-(2,3-Difluoro-6-(2-fluoroethoxy)phenyl)cyclopropyl)methanamine]
EC50 ([1]; EC50, nM 5-HT2C): 25 nM | Emax, % 5-HT 5-HT2C [1]: (95%) % 5-HT

C=CCOc1ccc(F)c(F)c1C1CC1CN (single isomer, unassigned; (+)) [(+)-Example 49, (+)-(2-(6-(Allyloxy)-2,3-difluorophenyl)cyclopropyl)methanamine]
EC50 ([1]; EC50, nM 5-HT2C): 36 nM | Emax, % 5-HT 5-HT2C [1]: (100%) % 5-HT | EC50 [2]: 3340 nM | Emax, % 5-HT 5-HT2B [2]: (35%) % 5-HT

NCC1CC1c1c(OCCF)ccc(F)c1Cl (single isomer, unassigned; (+)) [(+)-Example 52, (+)-(2-(2-Chloro-3-fluoro-6-(2-fluoroethoxy)phenyl)cyclopropyl)methanamine]
EC50 ([1]; EC50, nM 5-HT2C): 49 nM | Emax, % 5-HT 5-HT2C [1]: (86%) % 5-HT

C=CCOc1ccc(F)c(Cl)c1C1CC1CN (single isomer, unassigned; (+)) [(+)-Example 53, (+)-(2-(6-(Allyloxy)-2-chloro-3-fluorophenyl)cyclopropyl)methanamine]
EC50 ([1]; EC50, nM 5-HT2C): 96 nM | Emax, % 5-HT 5-HT2C [1]: (92% 5-HT

NCC1CC1c1cc(Cl)c(F)cc1OCCF (single isomer, unassigned; (-)) [(−)-Example 4, (−)-(2-(5-Chloro-4-fluoro-2-(2-fluoroethoxy)phenyl)cyclopropyl)methanamine]
EC50 ([1]; EC50, nM 5-HT2C): 776 nM | Emax, % 5-HT 5-HT2C [1]: (70%) % 5-HT | EC50 [2]: 2520 nM | Emax, % 5-HT 5-HT2B [2]: (26%) % 5-HT

C=CCOc1cc(F)c(Cl)cc1C1CC1CN (single isomer, unassigned; (-)) [(−)-Example 5, (−)-(2-(2-(Allyloxy)-5-chloro-4-fluorophenyl)cyclopropyl)methanamine]
EC50 ([1]; EC50, nM 5-HT2C): 308 nM | Emax, % 5-HT 5-HT2C [1]: (77%) % 5-HT | EC50 [2]: 1960 nM | Emax, % 5-HT 5-HT2B [2]: (22%) % 5-HT

C#CCOc1cc(F)c(Cl)cc1C1CC1CN (single isomer, unassigned; (-)) [(−)-Example 6, (−)-(2-(5-Chloro-4-fluoro-2-(prop-2-yn-1-yloxy)phenyl)cyclopropyl)methanamine]
EC50 ([1]; EC50, nM 5-HT2C): 117 nM | Emax, % 5-HT 5-HT2C [1]: (92%) % 5-HT | EC50 [2]: 4210 nM | Emax, % 5-HT 5-HT2B [2]: (33%) % 5-HT

C=C(F)COc1ccc(F)cc1C1CC1CN (single isomer, unassigned; (-)) [(−)-Example 9, (−)-(2-(5-Fluoro-2-((2-fluoroallyl)oxy)phenyl)cyclopropyl)methanamine]
EC50 ([1]; EC50, nM 5-HT2C): 985 nM | Emax, % 5-HT 5-HT2C [1]: (62%) % 5-HT

CSCCOc1ccc(Cl)cc1C1CC1CN (single isomer, unassigned; (-)) [(−)-Example 18, (−)-(2-(5-Chloro-2-(2-(methylthio)ethoxy)phenyl)cyclopropyl)methanamine]
EC50 ([1]; EC50, nM 5-HT2C): 1760 nM | Emax, % 5-HT 5-HT2C [1]: (11%) % 5-HT

C=C(C)COc1ccc(Cl)cc1C1CC1CN (single isomer, unassigned; (-)) [(−)-Example 24, (−)-(2-(5-Chloro-2-((2-methylallyl)oxy)phenyl)cyclopropyl)methanamine]
EC50 [2]: 6090 nM | Emax, % 5-HT 5-HT2B [2]: (39%) % 5-HT

C=C(F)COc1ccc(Cl)cc1C1CC1CN (single isomer, unassigned; (-)) [(−)-Example 25, (−)-(2-(5-Chloro-2-((2-fluoroallyl)oxy)phenyl)cyclopropyl)methanamine]
EC50 [2]: 6880 nM | Emax, % 5-HT 5-HT2B [2]: (33%) % 5-HT

NCC1CC1c1cc(F)c(F)cc1OCCF (single isomer, unassigned; (-)) [(−)-Example 42, (−)-(2-(4,5-Difluoro-2-(2-fluoroethoxy)phenyl)cyclopropyl)methanamine]
EC50 ([1]; EC50, nM 5-HT2C): 772 nM | Emax, % 5-HT 5-HT2C [1]: (73%) % 5-HT

CCCOc1ccc(F)c(F)c1C1CC1CN (single isomer, unassigned; (-)) [(−)-Example 48, (−)-(2-(2,3-Difluoro-6-propoxyphenyl)cyclopropyl)methanamine]
EC50 ([1]; EC50, nM 5-HT2C): 357 nM | Emax, % 5-HT 5-HT2C [1]: (68%) % 5-HT
